This note sets out measurements from paper PMC7367283, “A PIP2 substitute mediates voltage sensor-pore coupling in KCNQ activation” (Communications Biology, 2020).

The target in this test is CaV1.2 (Homo sapiens, UniProt Q13936). Kind of test: Two-electrode voltage clamp of CaV1.2 in Xenopus oocytes. The class given is cell-based. To be noted: 10 µM CP1. The text has this: Since CP1 has a similar effect to PIP2 in mediating VSD-pore coupling in KCNQ channels, we tested if CP1 has effects on other ion channels that are also sensitive to PIP2 or are voltage activated and share general structural features of the VSD and the pore with KCNQ. […] On the other hand, NaV1.5 and KV4.2 are voltage-gated ion channels.
Sequence of CaV1.2 (Q13936 whole entry): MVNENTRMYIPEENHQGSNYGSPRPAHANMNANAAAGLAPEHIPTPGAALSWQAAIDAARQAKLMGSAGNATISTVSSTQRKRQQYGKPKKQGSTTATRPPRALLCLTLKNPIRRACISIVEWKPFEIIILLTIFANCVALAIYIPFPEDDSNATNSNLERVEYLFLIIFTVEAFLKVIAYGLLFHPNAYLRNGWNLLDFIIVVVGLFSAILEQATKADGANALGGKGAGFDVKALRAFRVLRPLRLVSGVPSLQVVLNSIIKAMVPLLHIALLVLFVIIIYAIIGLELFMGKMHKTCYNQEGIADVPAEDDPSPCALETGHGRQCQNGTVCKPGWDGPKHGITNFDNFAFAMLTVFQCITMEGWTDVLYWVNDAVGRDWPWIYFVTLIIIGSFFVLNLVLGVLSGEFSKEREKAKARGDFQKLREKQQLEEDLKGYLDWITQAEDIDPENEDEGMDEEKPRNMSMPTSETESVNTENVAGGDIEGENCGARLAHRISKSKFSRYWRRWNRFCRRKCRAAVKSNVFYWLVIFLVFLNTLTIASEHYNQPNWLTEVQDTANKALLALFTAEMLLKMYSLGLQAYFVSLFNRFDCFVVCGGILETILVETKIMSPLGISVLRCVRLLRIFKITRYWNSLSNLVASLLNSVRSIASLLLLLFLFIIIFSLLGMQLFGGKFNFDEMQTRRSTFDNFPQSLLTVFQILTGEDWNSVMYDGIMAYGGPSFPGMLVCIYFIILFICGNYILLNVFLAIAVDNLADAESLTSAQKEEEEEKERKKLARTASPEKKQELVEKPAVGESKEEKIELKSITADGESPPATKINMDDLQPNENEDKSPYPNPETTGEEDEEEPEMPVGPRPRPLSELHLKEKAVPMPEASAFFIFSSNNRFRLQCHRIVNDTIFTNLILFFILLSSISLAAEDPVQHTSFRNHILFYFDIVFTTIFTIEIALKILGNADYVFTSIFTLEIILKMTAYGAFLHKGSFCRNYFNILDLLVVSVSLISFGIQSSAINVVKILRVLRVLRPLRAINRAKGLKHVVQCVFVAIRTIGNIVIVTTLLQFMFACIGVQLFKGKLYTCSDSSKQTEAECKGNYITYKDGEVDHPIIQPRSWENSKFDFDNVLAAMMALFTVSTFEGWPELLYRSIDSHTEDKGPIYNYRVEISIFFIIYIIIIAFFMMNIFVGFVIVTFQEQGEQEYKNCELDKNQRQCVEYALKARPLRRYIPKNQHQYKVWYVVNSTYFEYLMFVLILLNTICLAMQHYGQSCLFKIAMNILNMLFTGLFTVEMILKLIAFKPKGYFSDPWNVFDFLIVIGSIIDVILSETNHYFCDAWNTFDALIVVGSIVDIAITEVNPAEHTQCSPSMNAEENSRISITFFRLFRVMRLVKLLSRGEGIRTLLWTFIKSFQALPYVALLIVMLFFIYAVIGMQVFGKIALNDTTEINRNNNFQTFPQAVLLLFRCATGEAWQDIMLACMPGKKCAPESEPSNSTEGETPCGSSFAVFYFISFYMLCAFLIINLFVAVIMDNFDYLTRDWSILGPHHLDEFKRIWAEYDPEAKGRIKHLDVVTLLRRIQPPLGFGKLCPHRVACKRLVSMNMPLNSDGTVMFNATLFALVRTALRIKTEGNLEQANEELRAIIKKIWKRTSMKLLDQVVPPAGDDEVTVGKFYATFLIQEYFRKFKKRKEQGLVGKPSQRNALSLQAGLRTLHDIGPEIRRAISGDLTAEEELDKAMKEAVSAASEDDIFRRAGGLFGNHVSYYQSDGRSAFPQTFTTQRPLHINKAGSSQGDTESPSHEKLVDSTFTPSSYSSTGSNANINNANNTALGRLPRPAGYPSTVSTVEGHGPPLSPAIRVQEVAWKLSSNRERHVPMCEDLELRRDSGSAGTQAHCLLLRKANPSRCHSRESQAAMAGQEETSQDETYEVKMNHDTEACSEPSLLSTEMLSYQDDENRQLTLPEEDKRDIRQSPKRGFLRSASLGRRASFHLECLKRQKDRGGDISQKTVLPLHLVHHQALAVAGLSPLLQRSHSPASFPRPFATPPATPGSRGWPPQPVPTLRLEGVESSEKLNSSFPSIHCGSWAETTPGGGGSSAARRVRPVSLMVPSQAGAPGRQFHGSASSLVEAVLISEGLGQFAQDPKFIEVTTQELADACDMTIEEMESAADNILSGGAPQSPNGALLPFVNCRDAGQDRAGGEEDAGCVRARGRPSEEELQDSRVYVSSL
Sequence of CaV1.2 (Q02641 1-523 isoform Q02641-2 partner): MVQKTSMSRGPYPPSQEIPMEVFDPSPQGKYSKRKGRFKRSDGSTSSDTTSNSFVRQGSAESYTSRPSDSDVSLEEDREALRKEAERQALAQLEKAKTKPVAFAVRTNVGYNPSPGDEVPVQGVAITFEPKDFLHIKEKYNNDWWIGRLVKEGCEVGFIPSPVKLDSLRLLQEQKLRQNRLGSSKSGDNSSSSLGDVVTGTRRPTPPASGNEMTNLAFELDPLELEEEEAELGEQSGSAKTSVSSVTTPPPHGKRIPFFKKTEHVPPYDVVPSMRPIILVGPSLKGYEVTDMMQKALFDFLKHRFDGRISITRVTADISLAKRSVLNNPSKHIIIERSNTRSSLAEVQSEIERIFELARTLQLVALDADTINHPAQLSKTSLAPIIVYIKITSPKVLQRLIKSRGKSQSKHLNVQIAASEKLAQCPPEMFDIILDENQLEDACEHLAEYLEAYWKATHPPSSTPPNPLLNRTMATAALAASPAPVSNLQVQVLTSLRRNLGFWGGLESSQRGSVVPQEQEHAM
Sequence of CaV1.2 (P54289 25-956 partner limits assumed): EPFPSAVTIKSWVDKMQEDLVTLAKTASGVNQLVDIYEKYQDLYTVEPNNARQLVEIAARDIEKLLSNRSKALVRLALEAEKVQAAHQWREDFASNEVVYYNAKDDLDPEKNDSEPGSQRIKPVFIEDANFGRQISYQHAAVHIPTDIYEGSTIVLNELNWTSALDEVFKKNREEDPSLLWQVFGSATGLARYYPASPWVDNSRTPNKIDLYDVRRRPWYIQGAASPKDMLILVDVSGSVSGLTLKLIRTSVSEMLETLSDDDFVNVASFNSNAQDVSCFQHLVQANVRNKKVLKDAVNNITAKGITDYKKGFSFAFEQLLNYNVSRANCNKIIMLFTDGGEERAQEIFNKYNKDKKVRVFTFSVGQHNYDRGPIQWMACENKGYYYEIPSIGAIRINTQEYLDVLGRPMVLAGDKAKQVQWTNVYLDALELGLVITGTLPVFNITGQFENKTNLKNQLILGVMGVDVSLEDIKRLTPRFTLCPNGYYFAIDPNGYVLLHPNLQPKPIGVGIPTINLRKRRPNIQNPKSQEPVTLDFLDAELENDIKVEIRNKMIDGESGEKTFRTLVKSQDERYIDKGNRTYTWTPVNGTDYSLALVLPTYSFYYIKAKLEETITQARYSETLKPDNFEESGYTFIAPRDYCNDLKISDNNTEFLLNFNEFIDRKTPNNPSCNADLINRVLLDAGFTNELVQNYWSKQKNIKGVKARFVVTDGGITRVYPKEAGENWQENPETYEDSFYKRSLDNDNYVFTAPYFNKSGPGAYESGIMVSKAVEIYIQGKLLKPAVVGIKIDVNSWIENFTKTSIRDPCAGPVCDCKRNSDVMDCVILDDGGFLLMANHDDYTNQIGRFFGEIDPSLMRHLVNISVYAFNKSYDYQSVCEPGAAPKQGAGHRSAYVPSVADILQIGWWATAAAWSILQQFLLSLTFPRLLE
Sequence of CaV1.2 (P54289 957-1103 partner limits assumed): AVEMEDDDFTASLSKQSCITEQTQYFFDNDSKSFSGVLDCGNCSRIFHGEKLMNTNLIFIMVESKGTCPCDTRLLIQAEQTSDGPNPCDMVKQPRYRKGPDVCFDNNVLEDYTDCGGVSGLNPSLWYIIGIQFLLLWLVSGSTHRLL
Fig. 6 Effects of CP1 on other ion channels expressed in Xenopus oocytes. a Currents of Kir1.1, CaV1.2, NaV1.5, hERG, and KV4.2 before and after application of 10 µM CP1, respectively. The voltages for holding, test, and returning pulses were Kir1.1, 0 mV, −100 to +60 mV, 0; CaV1.2, −100 mV, −100 to +60, −100 mV; NaV1.5, −100, −120 to +40 mV, −120 mV; hERG, −80 mV, −90 to +60 mV, −60 mV; KV4.2, −80 mV, −100 mV to +80 mV, −40 mV; HCN4, −30 mV, −30 to −140 mV, −120 mV. b Current–voltage relations of Kir1.1 channel in the absence or presence of 10 µM CP1 (n = 7). c–g G–V relations of indicated channels with and without 10 µM CP1. The ΔV1/2 of G–V relations (mV) are CaV1.2, 3.38 ± 0.71 mV (c); NaV1.5, −2.26 ± 0.95 mV (d); hERG, 6.85 ± 1.81 mV (e); KV 4.2, −2.26 ± 2.88 mV (f); HCN4, 17.13 ± 1.59 mV (g).
Complementary DNA (cDNA) encoding human KCNQ1 (UniProtKB/Swiss‐Prot under accession no. P51787), KCNQ2 (O43526), KCNQ3 (O43525), KCNE1 (P15382), Kir1.1 (P48048), hERG (Q12809), KV4.2 (Q63881), NaV1.5 (Q14524), NaV β1 (Q07699), CaV1.2 (Q13936), CaV β1a (Q02641), CaV α2/δ1 (P54289), and HCN4 (Q9Y3Q4) were subcloned into oocyte expression vectors, respectively. Site-directed mutations of the KCNQ1 channel were all produced by overlap extension polymerase chain reaction (PCR) with high-fidelity Pfu polymerase (Stratagene, CA). The presence of the desired mutation was verified by sequencing the PCR-amplified regions. All the primer sequences used in this study are available in Supplementary Table 1. The complementary RNA (cRNA) of all these channels and mutations was transcribed in vitro with the T3, T7, or SP6 polymerase mMessage mMachine kit (Invitrogen, Thermo Fisher Scientific, MO).
The use of Xenopus laevis to obtain oocytes was approved by the Washington University Animal Studies Committee (protocol #20190030). Oocytes were manually dispersed and digested with collagenase (0.5 mg/ml, Sigma-Aldrich, Saint Louis, MO) to remove the follicle cell layer. Stage V or VI oocytes were selected and injected with cRNAs (9.2 ng) of channel or mutations. Especially, to characterize IKs, a mix of cRNAs at a molar ratio 4:1 (KCNQ1:KCNE1) was injected. For KCNQ2/KCNQ3, the molar ratio was 1:1 (KCNQ2:KCNQ3). For sodium channels, a 3:1 molar ratio (β1:NaV1.5) and for calcium channels a weight ratio 1:1:1 (β1:α2/δ1:CaV1.2) was injected, respectively. Injected oocytes were incubated in ND96 solution containing (in mM) 96 NaCl, 2 KCl, 1.8 CaCl2, 1 MgCl2, and 5 HEPES, pH 7.6, supplemented with 2.5 mM Na pyruvate and 1% penicillin–streptomycin, at 18 °C for 3–7 days before recording.
The whole-oocyte ionic currents were recorded with a GeneClamp 500B amplifier (Axon Instruments, CA) or iTEV90 amplifier (HEKA, Germany) and then sampled at 1 kHz and low-pass-filtered at 2 kHz. The Patchmaster software (HEKA, Germany) was used to acquire data. The Kir1.1 current was recorded with a high K^+ bath solution containing (in mM) 96 KCl, 4 NaCl, 1 CaCl2, 2 MgCl2, and 10 HEPES, pH 7.3–7.4. The HCN4 current was recorded in ND66 solution containing (in mM) 66 NaCl, 32 KCl, 1.8 CaCl2, 1 MgCl2, and 5 HEPES, pH 7.6. All the other potassium channels were recorded in ND96 solution. The currents of CaV1.2 channel were recorded in 40 mM Ba^2+ bath solution containing (in mM) 40 Ba(OH)2, 50 TEA-OH, 2 KOH, and 5 HEPES, adjusted to pH 7.4 with methanesulfonic acid. CP1 (DISODIUM 5-BROMO-2-[9-CHLORO-3-(SULFONATOOXY) NAPHTHO [1,2-B] THIEN-2-YL]-1H-INDOL-3-YL SULFATE, Sigma-Aldrich, MO) and Chromanol 293B (Sigma-Aldrich, MO) were dissolved in bath solutions. All the chemicals were purchased from Sigma-Aldrich. […]

Regarding `O=S(=O)([O-])Oc1c(-c2sc3c(ccc4cccc(Cl)c43)c2OS(=O)(=O)[O-])[nH]c2ccc(Br)cc12.[Na+].[Na+]` [CP1, DISODIUM 5-BROMO-2-[9-CHLORO-3-(SULFONATOOXY) NAPHTHO [1,2-B] THIEN-2-YL]-1H-INDOL-3-YL SULFATE], the “ΔV1/2 of G–V relations” value is recorded as 3.38 ± 0.71 mV. In addition, for the setting “voltage 0 mV”, the “G/Gmax Mean (Fig. 6c)” value is 0.1903. Further, the “G/Gmax Mean (Fig. 6c)” value (voltage 10 mV) came out at 0.4214. Besides, for the setting “voltage 20 mV”, the “G/Gmax Mean (Fig. 6c)” value came out at 0.7222. Also, the “G/Gmax Mean (Fig. 6c)” value (voltage 30 mV) was determined as 0.9242. The “G/Gmax Mean (Fig. 6c)” value (voltage 40 mV) was found to be 1.0000. In addition, the “G/Gmax Mean (Fig. 6c)” value (voltage -10 mV) is 0.0690. In addition, the “G/Gmax Mean (Fig. 6c)” value (voltage -20 mV) is given as 0.0228. Moreover, the “G/Gmax Mean (Fig. 6c)” value (voltage -30 mV) is on record as 0.0102. For the same molecule, the “G/Gmax Mean (Fig. 6c)” value (voltage -40 mV) came out at 0.0076. Where the note is “voltage -50 mV”, the “G/Gmax Mean (Fig. 6c)” value came out at 0.0080. Also, under “voltage -60 mV”, the “G/Gmax Mean (Fig. 6c)” value is 0.0090. The “G/Gmax Mean (Fig. 6c)” value (voltage -70 mV) came to 0.0102. Besides, the “G/Gmax Mean (Fig. 6c)” value (voltage -80 mV) worked out at 0.0108. In addition, the “G/Gmax Mean (Fig. 6c)” value (voltage -90 mV) was 0.0176. Further, the “G/Gmax Mean (Fig. 6c)” value (voltage -100 mV) was 0.0169.
